Assays:
[1] = system: A2780 ovarian carcinoma cells; assay: In vitro cytotoxicity (MTT assay), A2780; assay type: cell-based, human; details: MTT, 24 h incubation, ± standard deviation, triplicate; read-out: IC50, A2780
Procedure: (§1) The reference normal cell line of human fetal fibroblasts (MRC-5) was obtained from the same commercial source and maintained according to the producer’s instructions. The half-maximal inhibitory concentrations (IC50) were calculated from dose–response curves by means of the GraphPad Prism 6 software (GraphPad Software, San Diego, CA, USA).

[2] = system: A2780R Cisplatin-resistant ovarian carcinoma cells; assay: In vitro cytotoxicity (MTT assay), A2780R; assay type: cell-based, human; details: ± standard deviation, triplicate
Procedure: as §1, with “The testing was performed on the ovarian carcinoma (A2780), Cisplatin-resistant ovarian carcinoma (A2780R), prostate adenocarcinoma (PC-3), prostate carcinoma (22Rv1), and leukemia monocytic (THP-1) and intestinal colon adenocarcinoma (LS180) human cell lines that were obtained from the ATCC collection of cell lines and cultivated according to the producer’s instructions. The reference” for “The reference”

[3] = system: PC-3 prostate adenocarcinoma cells; assay: In vitro cytotoxicity (MTT assay), PC-3; assay type: cell-based, human; details: ± standard deviation, triplicate
Procedure: as §1, with “The testing was performed on the ovarian carcinoma (A2780), Cisplatin-resistant ovarian carcinoma (A2780R), prostate adenocarcinoma (PC-3), prostate carcinoma (22Rv1), and leukemia monocytic (THP-1) and intestinal colon adenocarcinoma (LS180) human cell lines that were obtained from the ATCC collection of cell lines and cultivated according to the producer’s instructions. The reference” for “The reference”

[4] = system: MRC5 human fetal fibroblasts; assay: In vitro cytotoxicity (MTT assay), normal MRC-5 fibroblasts; assay type: cell-based; details: ± standard deviation, triplicate, read-out: IC50, MRC5 (healthy cells)
Procedure: as §1, with “The testing was performed on the ovarian carcinoma (A2780), Cisplatin-resistant ovarian carcinoma (A2780R), prostate adenocarcinoma (PC-3), prostate carcinoma (22Rv1), and leukemia monocytic (THP-1) and intestinal colon adenocarcinoma (LS180) human cell lines that were obtained from the ATCC collection of cell lines and cultivated according to the producer’s instructions. The reference” for “The reference”

[5] = system: human cancer cell lines (A2780, A2780R, PC-3, 22Rv1, and THP-1); assay: In vitro cytotoxicity, summary statements over the panel of cell lines; assay type: cell-based; details: read-out: IC50 of kinetin; A2780, A2780R, PC-3; concentration range 0.01–25 μM
Procedure: as §1, with “The testing was performed on the ovarian carcinoma (A2780), Cisplatin-resistant ovarian carcinoma (A2780R), prostate adenocarcinoma (PC-3), prostate carcinoma (22Rv1), and leukemia monocytic (THP-1) and intestinal colon adenocarcinoma (LS180) human cell lines that were obtained from the ATCC collection of cell lines and cultivated according to the producer’s instructions. The reference” for “The reference”

THP1-Blue™ NF-κB cells = assay: Cell viability, CCK-8, serum-free medium; assay type: cell-based, human; details: THP1-Blue NF-κB cells, serum-free medium, 24 h treatment, CCK-8; read-out: IC50 ± SEM, cytotoxic effect
Procedure: The cells were cultivated in RPMI (Roswell Park Memorial Institute) 1640 medium (Biosera; Nuaille, France) supplemented with 10% fetal bovine serum (FBS) and antibiotics (100 U/mL penicillin and […] streptomycin) (both from Merck). All further experiments were performed in serum-free medium. The effect of the test compounds dissolved in DMF on cell viability after 24 h incubation was determined using a Cell Counting Kit-8 (CCK-8; Merck) according to the manufacturer’s instructions, similarly as previously described.

PPARγ = assay: Immunocytochemical analysis of PPARγ expression and localisation; assay type: cell-based, human; details: 100 nM, 1 h pre-treatment, LPS-stimulated THP1-Blue NF-κB macrophages
Procedure: THP1-Blue™ NF-κB cells were seeded onto a µ-Slide 8 Well (Ibidi; Gräfelfing, Germany) and differentiated into macrophages by […] (PMA) at the final concentration of 50 ng/mL, as was described previously.
Differentiated macrophages were washed by PBS and covered by fresh serum-free medium for 2 h. […] One hour later, the cells were challenged by LPS for 24 h. Then, the cells were washed by PBS and fixed by 4% paraformaldehyde dissolved in PBS for 10 min. Cell permeabilization and blocking of free binding sites were performed by 0.1% (v/v) Triton X100 and 5% (w/v) bovine serum albumin (BSA) dissolved in PBS for 1 h at room temperature. After that, cells were washed by PBS with 0.1% (v/v) Tween 20 and covered by fresh PBS with 5% BSA and 0.1% Tween 20 containing Alexa Fluor® 546-labelled anti-PPARγ antibody diluted 1:100 (catalogue number sc-7273; Santa Cruz Biotechnology; Dallas, TX, USA) for a further 24 h. Then, cells were washed by PBS with 0.1% Tween 20 and incubated with Hoechst stain diluted 1:2000 for 10 min. The remaining stain was washed out by PBS and covered by fresh PBS for further microscope analysis. The confocal microscope Leica TCS SP8 MP (Leica Microsystems, Mannheim, Germany) was used for obtaining the images for the immunocytochemical analysis of PPARγ expression and localization.

MCF-7 cells = details: literature data ref 22; cited from earlier work
[6] = system: 22Rv1 prostate carcinoma cells; assay: In vitro cytotoxicity (MTT assay), 22Rv1; assay type: cell-based, human; details: ± standard deviation, triplicate
Procedure: as §1, with “The testing was performed on the ovarian carcinoma (A2780), Cisplatin-resistant ovarian carcinoma (A2780R), prostate adenocarcinoma (PC-3), prostate carcinoma (22Rv1), and leukemia monocytic (THP-1) and intestinal colon adenocarcinoma (LS180) human cell lines that were obtained from the ATCC collection of cell lines and cultivated according to the producer’s instructions. The reference” for “The reference”

[7] = system: LS180 intestinal colon adenocarcinoma cells; assay: In vitro cytotoxicity (MTT assay), LS180; assay type: cell-based, human; details: ± standard deviation, triplicate
Procedure: as §1, with “The testing was performed on the ovarian carcinoma (A2780), Cisplatin-resistant ovarian carcinoma (A2780R), prostate adenocarcinoma (PC-3), prostate carcinoma (22Rv1), and leukemia monocytic (THP-1) and intestinal colon adenocarcinoma (LS180) human cell lines that were obtained from the ATCC collection of cell lines and cultivated according to the producer’s instructions. The reference” for “The reference”

A2780 cells [8] = assay: Cell cycle analysis (flow cytometry); assay type: cell-based, human; details: A2780, half-cytotoxic concentration, 24 h
Procedure: After 24 h, the cells were treated with a 4 µM solution of complex (1) and cultivated for the next 24 h. Then, the cells were washed once with PBS (0.1 M, pH 7.4), and cell cycle analysis was performed using a BD Cycletest^TM Plus DNA kit (Becton Dickinson, Franklin Lakes, NJ, USA) according to the manufacturer’s protocol. The data were acquired using a BD FACSVerse flow cytometer (Becton Dickinson, USA) in three independent experiments, each performed in duplicate, while at least 5 × 10^3 events were recorded for each sample.

A2780 cells [9] = assay: Induction of apoptosis, Annexin V-FITC/PI staining; assay type: cell-based, human; details: A2780, half-cytotoxic concentration, 24 h
Procedure: (§2) The induction of cell death by complex (1) was studied by two methods in the A2780 cell line. Firstly, the induction of apoptosis was tested using an Annexin V-FITC/PI commercial kit (V13242, Thermo Fisher Scientific, USA). Second, caspase 3/7 activation was monitored using the CellEvent™ Caspase-3/7 Green Flow Cytometry Assay Kit (C10427, Thermo Fisher Scientific, USA). Both assays were performed according to the manufacturers’ protocols with one modification in the caspase induction assay: the use of CellEvent^TM Caspase-3/7 Green Detection Reagent was only for the detection of caspase 3/7 activation. The general procedure was as follows: 5 × 10^4 cells per well were seeded in a 24-well cell culture plate, and after 24 h, the cells were treated with 4 µM solution of complex (1) and cultivated for next 24 h. […] The trypsin was blocked by adding the cell culture medium to a final volume of 500 µL, and the resulting cell suspensions were divided into two separate 250 µL aliquots. The first set of aliquots was used to evaluate the Annexin V-FITC/PI assay, whilst the second one was used for the caspase 3/7 activation assay. Both assays were performed using a BD FACSVerse flow cytometer (Becton Dickinson, USA) in three independent experiments, each performed in duplicate.

caspases 3/7 = assay: Caspase 3/7 activation (flow cytometry); assay type: cell-based, human; details: A2780, half-cytotoxic concentration, 24 h
Procedure: as §2

A2780 cells [10] = assay: Induction of autophagy (CYTO-ID kit); assay type: cell-based, human; details: A2780, half-cytotoxic concentration, 24 h
Procedure: The induction of autophagy by complex (1) was studied using a CYTO-ID® Autophagy Detection Kit 2.0 (ENZO, New York, NY, USA) according to the manufacturer’s protocol. Briefly, the A2780 cells were seeded in a 24-well cell culture plate at 5 × 10^4 cells per well and cultivated for 24 h. The next day, the cells were treated with complex (1) at 4 µM. […] Then, the cells were stained with CYTO-ID® Green stain solution and incubated for 30 min in the dark. After the final wash with PBS, the cell suspensions were analyzed using the BD FACSVerse flow cytometer (Becton Dickinson, USA) in three separate experiments, while at least 10^4 events were recorded for each sample prepared in duplicates. The cells incubated with the mixture of chloroquine (10 µM) and rapamycin (0.5 µM) for 18 h were used as a positive control.

A2780 cells [11] = assay: Intracellular ROS/superoxide production; assay type: cell-based, human; details: A2780, half-cytotoxic concentration, 24 h, with or without pyocyanin
Procedure: ROS induction in A2780 cells after incubation with 4 μM complex (1) was studied using a ROS-ID® Total ROS/Superoxide detection kit (Enzo Life Sciences, Farmingdale, NY, USA) according to the manufacturer’s protocol. The cells were seeded in a 96-well cell culture plates at 10^4 cells per well and cultivated for 24 h, followed by 24 h experimental treatment. Then, the cells were stained with ROS/superoxide probe mixture and incubated at 37 °C in the dark for 60 min. Finally, the fluorescence was measured using a microplate reader Infinite M200Pro (Tecan, Männedorf, Switzerland). The control samples contained 500 µM pyocyanin, and three independent experiments were conducted, each in triplicate.

A2780 cells [12] = assay: Mitochondrial membrane potential analysis (MITO-ID); assay type: cell-based, human; details: A2780, half-cytotoxic concentration, 24 h
Procedure: The A2780 cells were seeded in 24-well cell culture plates at 5 × 10^4 cells/well and cultivated for 24 h. The next day, the complex (1) was added to a final concentration of 4 µM, and the cells were incubated for another 24 h. […] The cells were then isolated by centrifugation and resuspended in a staining solution prepared according to the manufacturer’s protocol from a MITO-ID® Membrane Potential Detection kit (Enzo Life Sciences, USA). Finally, the cells were analyzed using a BD FACSVerse flow cytometer (Becton Dickinson, USA). The control was carried out by treatment with 2 µM carbonyl cyanide 3-chlorophenylhydrazone (CCCP). Three independent experiments were conducted, each in duplicate.

Row | Compound | IC50 [1] [µM] | IC50 [2] [µM] | IC50 [3] [µM] | IC50 [4] [µM] | IC50 [5] [µM] | IC50 (THP1-Blue™ NF-κB cells) [µM] | Effect on the amount of PPARγ (PPARγ) | IC50 (MCF-7 cells) [µM] | IC50 [6] [µM] | IC50 [7] [µM] | Effect on the cell cycle (A2780 cells [8]) | Number of cells in the G0/G1 phase (A2780 cells [8]; vs untreated control) | Cells in early and late-stage apoptosis (A2780 cells [9]) | Cells with active executioner caspases 3/7 (caspases 3/7) | Induction of autophagy (A2780 cells [10]) | Intracellular oxidative stress, ROS and superoxide levels (A2780 cells [11]) | Damage to mitochondrial membranes (A2780 cells [12])
1 | 6-furfuryladenine [Kinetin] | > 25 | > 25 | > 25 | > 25 | > 25 | > 10 | did not show this effect | 52 | – | – | – | – | – | – | – | – | –
2 | N.N.[Cl][Pt][Cl] [Cisplatin] | – | > 50 | > 50 | > 50 | – | – | – | – | 28.2 ± 4.2 | > 50 | arrested a significant number of cells in S-phase | significant decrease in the number of cells in the G0/G1 phase | around 40% | around 50% | significantly induced the autophagy | did not cause a significant increase in the intracellular oxidative stress | Significant changes in mitochondrial membrane permeability
